Data: patent US10980805B2, “Aza-pyridone compounds and uses thereof” (Janssen BioPharma, Inc., priority 2013, dated 2021)

Tests used:
[1] = system: Influenza strain A549_A/WSN/33 (H1N1); test: Influenza antiviral assay (neuraminidase fluorescence readout); assay type: cell-based, Influenza virus; details: Influenza A virus, read-out: % Inhibition (EC50 class, Table 2)
[2] = target: Full length EN PA (influenza PA endonuclease) (Influenza A virus, UniProt P15659); test: EN PA FRET inhibition assay; assay type: biochemical; details: FRET probe, mean of a minimum of two independent experiments, read-out: Potency (IC50 class, Table 3)

SMILES	EC50 [1] [µM]	IC50 [2] [µM]
CCOc1c2n(ncc1=O)[C@@H](C(c1cccc(F)c1)c1cccc(F)c1)CN(CC)C2=O [Compound 85-A]	20 to 100	≥ 1
CC(C)CN1C[C@H](C(c2cccc(F)c2)c2cccc(F)c2)n2ncc(=O)c(O)c2C1=O [Compound 86-A]	< 20	< 0.25
CCCCN1C[C@H](C(c2cccc(F)c2)c2cccc(F)c2)n2ncc(=O)c(O)c2C1=O [Compound 87-A]	< 20	< 0.25
CCN1C[C@H](C(c2cccc(F)c2)c2cccc(F)c2)n2ncc(=O)c(OCOC(=O)Oc3ccc([N+](=O)[O-])cc3C)c2C1=O [Compound 88-A]	< 20	0.25 to 1
CN1C[C@H](C2c3ccc(F)cc3CCc3cc(F)ccc32)n2ncc(=O)c(O)c2C1=O [Compound 89-A]	< 20	< 0.25
CN1C[C@@H](C2c3ccc(F)cc3CCc3cc(F)ccc32)n2ncc(=O)c(O)c2C1=O [Compound 89-B]	< 20	< 0.25
CN1CC(C2c3ccc(F)cc3CCc3cc(F)ccc32)n2ncc(=O)c(O)c2C1=O (centres unmarked) [Compound 89]	< 20	< 0.25
COCC(C)(C)N1CC(C(c2ccccc2)c2ccccc2)n2ncc(=O)c(O)c2C1=O (centres unmarked) [Compound 90]	< 20	< 0.25
CCN1C[C@H](C(c2cccc(F)c2)c2cccc(F)c2)n2ncc(=O)c(OCOC(=O)NCCN3CCOCC3)c2C1=O [Compound 91-A]	20 to 100	≥ 1
O=C1c2c(O)c(=O)cnn2[C@@H](C(c2cccc(F)c2)c2cccc(F)c2)CN1CCO [Compound 92-A]	< 20	< 0.25
O=C1c2c(O)c(=O)cnn2[C@@H](C(c2cccc(F)c2)c2cccc(F)c2)CN1CC1CC1 [Compound 93-A]	< 20	< 0.25
CCN1C[C@H](C(c2cccc(F)c2)c2cccc(F)c2)n2ncc(=O)c(OCOC(=O)NC)c2C1=O [Compound 94-A]	20 to 100	≥ 1
CCN1C[C@H](C(c2cccc(F)c2)c2cccc(F)c2)n2ncc(=O)c(OCOC(=O)[C@@H](N)C(C)C)c2C1=O [Compound 95-A]	< 20	< 0.25
CC(C)[C@H](N)C(=O)OCOc1c2n(ncc1=O)[C@@H](C(c1ccccc1)c1ccccc1)CN(C(C)C)C2=O [Compound 96-A]	< 20	< 0.25
O=C1c2c(O)c(=O)cnn2[C@@H](C(c2ccccc2)c2ccccc2)CN1CC1CC1 [Compound 97-A]	< 20	< 0.25
CC(C)CN1C[C@H](C(c2ccccc2)c2ccccc2)n2ncc(=O)c(O)c2C1=O [Compound 98-A]	< 20	< 0.25

SMILES	EC50 [1] [µM]	IC50 [2] [µM]
CN1CC(C(c2ccccc2)c2cccc(CC#N)c2)n2ncc(=O)c(O)c2C1=O (centres unmarked) [Compound 99]	20 to 100	< 0.25
CN1CC(C(c2ccccc2)c2cccc(C#N)c2)n2ncc(=O)c(O)c2C1=O (centres unmarked) [Compound 100]	< 20	< 0.25
CN1CC(C(c2ccccc2)c2cccc(CC(N)=O)c2)n2ncc(=O)c(O)c2C1=O (centres unmarked) [Compound 101]	20 to 100	< 0.25
CN1CC(C(c2cccc(C#N)c2)c2cccc(C#N)c2)n2ncc(=O)c(O)c2C1=O (centres unmarked) [Compound 102]	20 to 100	< 0.25
CN1CC(C(Cc2ccccc2)c2ccccc2)n2ncc(=O)c(O)c2C1=O (centres unmarked) [Compound 103]	20 to 100	< 0.25
CN1CC(C(c2ccccc2)c2cccc(Cc3cnn(C)c3)c2)n2ncc(=O)c(O)c2C1=O (centres unmarked) [Compound 104]	< 20	< 0.25
CN1C[C@H]([C@@H](c2ccccc2)c2cccc(OC3CC3)c2)n2ncc(=O)c(O)c2C1=O [Compound 105-A]	< 20	< 0.25
CN1C[C@H]([C@H](c2ccccc2)c2cccc(OC3CC3)c2)n2ncc(=O)c(O)c2C1=O [Compound 105-B]	< 20	< 0.25
CN1C[C@@H]([C@H](c2ccccc2)c2cccc(OC3CC3)c2)n2ncc(=O)c(O)c2C1=O [Compound 105-C]	< 20	0.25 to 1
CN1C[C@@H]([C@@H](c2ccccc2)c2cccc(OC3CC3)c2)n2ncc(=O)c(O)c2C1=O [Compound 105-D]	20 to 100	≥ 1
CN1CC(C(c2ccccc2)c2cccc(OC3CC3)c2)n2ncc(=O)c(O)c2C1=O (centres unmarked) [Compound 105]	20 to 100	< 0.25
CC(N)C(=O)OCOc1c2n(ncc1=O)[C@@H](C(c1ccccc1)c1ccccc1)CN(C(C)C)C2=O (some centres unmarked) [Compound 106-A]	< 20	< 0.25
CN1C[C@H]([C@@H](c2ccccc2)n2cnc(I)c2)n2ncc(=O)c(O)c2C1=O [Compound 107-A]	20 to 100	< 0.25
CN1C[C@H]([C@H](c2ccccc2)n2cnc(I)c2)n2ncc(=O)c(O)c2C1=O [Compound 107-B]	20 to 100	< 0.25
CN1C[C@H]([C@@H](c2ccccc2)n2ccnc2)n2ncc(=O)c(O)c2C1=O [Compound 108-A]	20 to 100	< 0.25
